Reference: patent US20240382483A1, “HETEROCYCLIC EGFR INHIBITORS FOR USE IN THE TREATMENT OF CANCER” (Blueprint Medicines Corporation, priority 2021, published 2024)
Read-outs that look alike come from different tables or passages of the source.

Columns and labels:
[1] = target: T1, EGFR (L858R T790M C797S) (Homo sapiens, UniProt P00533, C797S/L858R/T790M); test: Biochemical EGFR inhibition assay (Caliper mobility shift), EGFR LRTMCS; conditions: LRTMCS (PH) IC50 (nM) @ 1 mM ATP (Num), EGFR LRTMCS mutant
T1 construct: purchased SignalChem E10-122VG
T1 sequence (P00533 25-1210 T790M/C797S/L858R): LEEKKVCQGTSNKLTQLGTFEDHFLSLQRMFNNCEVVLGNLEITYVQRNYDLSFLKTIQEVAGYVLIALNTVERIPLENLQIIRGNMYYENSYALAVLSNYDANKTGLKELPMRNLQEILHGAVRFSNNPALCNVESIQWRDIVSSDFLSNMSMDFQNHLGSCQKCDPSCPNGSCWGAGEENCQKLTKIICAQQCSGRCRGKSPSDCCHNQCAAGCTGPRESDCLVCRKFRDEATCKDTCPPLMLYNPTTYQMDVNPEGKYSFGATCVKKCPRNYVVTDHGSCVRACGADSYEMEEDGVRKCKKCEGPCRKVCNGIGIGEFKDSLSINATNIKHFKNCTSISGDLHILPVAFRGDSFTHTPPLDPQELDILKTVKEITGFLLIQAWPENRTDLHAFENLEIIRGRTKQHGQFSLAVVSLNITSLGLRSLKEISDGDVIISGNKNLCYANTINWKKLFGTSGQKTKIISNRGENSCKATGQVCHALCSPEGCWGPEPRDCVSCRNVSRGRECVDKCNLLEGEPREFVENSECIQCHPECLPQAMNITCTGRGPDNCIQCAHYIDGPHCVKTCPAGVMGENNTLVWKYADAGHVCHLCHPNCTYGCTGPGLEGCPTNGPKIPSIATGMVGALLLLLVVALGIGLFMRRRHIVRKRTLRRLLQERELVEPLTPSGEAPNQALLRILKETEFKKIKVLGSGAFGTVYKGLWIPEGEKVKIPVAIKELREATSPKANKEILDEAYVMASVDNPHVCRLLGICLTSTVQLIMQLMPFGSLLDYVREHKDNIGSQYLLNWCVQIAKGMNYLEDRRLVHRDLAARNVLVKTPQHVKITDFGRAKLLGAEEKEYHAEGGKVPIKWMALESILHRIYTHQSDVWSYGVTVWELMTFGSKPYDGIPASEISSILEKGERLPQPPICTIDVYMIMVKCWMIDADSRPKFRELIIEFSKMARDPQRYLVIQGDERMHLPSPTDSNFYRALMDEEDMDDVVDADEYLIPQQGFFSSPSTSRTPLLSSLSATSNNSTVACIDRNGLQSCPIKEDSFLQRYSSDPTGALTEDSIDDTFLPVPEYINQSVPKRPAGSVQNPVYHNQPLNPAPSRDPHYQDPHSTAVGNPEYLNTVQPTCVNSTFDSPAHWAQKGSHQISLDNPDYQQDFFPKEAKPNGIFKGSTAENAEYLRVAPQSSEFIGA
Method in brief: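 Apparent IC50s were derived by plotting percent activity against the log of compound concentration. Activity was measured as phosphopeptide electrophoretically separated from substrate, after reactions at room temperature reached 10% to 20% phosphorylation and were halted with 35 mM EDTA.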

[2] = target: T2, intracellular phosphorylation of EGFR in NCI-H1975 cell line that harbors the EGFR L858R T790M mutations (Homo sapiens, UniProt P00533, L858R/T790M); test: NCI-H1975 pEGFR AlphaLISA assay; assay type: cell-based; conditions: NCI-H1975 cells (EGFR L858R T790M), p-EGFR (Tyr1068), 4-5 hours incubation
T2 construct: NCI-H1975 cell line that harbors the EGFR L858R T790M mutations (ATCC, CRL-5908); host or cells: NCI-H1975
T2 sequence (P00533 25-1210 T790M/L858R): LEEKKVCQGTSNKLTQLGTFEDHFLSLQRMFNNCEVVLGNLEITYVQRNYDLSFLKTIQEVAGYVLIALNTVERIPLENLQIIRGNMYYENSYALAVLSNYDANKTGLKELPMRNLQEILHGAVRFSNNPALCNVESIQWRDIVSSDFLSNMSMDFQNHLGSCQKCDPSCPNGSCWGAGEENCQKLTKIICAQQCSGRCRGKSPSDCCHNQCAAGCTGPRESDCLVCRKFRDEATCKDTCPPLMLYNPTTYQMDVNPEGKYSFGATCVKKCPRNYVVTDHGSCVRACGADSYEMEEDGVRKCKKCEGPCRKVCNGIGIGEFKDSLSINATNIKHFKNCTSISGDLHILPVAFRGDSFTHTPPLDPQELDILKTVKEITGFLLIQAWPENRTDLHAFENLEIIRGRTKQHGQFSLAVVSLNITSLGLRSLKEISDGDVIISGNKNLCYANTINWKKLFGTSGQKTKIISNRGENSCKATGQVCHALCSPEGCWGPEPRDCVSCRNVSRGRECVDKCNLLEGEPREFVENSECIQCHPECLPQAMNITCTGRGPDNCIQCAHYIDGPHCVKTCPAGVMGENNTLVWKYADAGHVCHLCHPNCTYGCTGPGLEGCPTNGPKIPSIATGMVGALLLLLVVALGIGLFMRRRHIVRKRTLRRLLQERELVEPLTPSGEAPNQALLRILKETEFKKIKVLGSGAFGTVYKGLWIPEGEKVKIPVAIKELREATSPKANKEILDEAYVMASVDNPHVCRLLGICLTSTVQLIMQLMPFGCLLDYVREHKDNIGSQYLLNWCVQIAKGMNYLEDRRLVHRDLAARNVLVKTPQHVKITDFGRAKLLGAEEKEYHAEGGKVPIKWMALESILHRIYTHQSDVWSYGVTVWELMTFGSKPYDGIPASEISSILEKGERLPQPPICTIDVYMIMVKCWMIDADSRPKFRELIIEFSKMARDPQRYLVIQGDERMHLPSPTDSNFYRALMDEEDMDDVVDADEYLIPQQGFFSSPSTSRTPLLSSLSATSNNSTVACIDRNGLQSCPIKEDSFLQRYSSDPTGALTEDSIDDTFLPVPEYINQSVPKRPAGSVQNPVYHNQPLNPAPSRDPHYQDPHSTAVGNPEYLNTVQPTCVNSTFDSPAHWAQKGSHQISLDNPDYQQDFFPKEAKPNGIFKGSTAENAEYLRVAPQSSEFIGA
Protocol: On the next day, the test compounds and DMSO control were added into H1975 cell plate followed by incubation at 37C/5% CO2 for 4-5 hours. […] Then 5 μL of a donor bead mix was added to each well followed by overnight incubation at room temperature in dark. On the next day, the plate was read at a compatible plate reader to obtain pEGFR signal. Percent of pEGFR inhibition was plotted against log concentration of compounds to generate IC50 values.

[3] = read-out: Ext pEGFR H1975 GMean IC50 (nM) Protocol: @Pharmaron AlphaLISA (Num)

SMILES	IC50 [1]	IC50 ([2]; Ext pEGFR H1975 GMean IC50 (nM) Protocol: @Pharmaron AlphaLISA (Num))	IC50 [2, 3]
C[C@@H]1CCN1c1ncc(-c2cccnc2F)c2cc(Nc3ccnc(N4CC[C@@H](O)[C@@H](F)C4)n3)ncc12 (single isomer, unassigned) [Example 161, (3S,4R)-3-fluoro-1-(4-((5-(2-fluoropyridin-3-yl)-8-((R)-2-methylazetidin-1-yl)-2,7-naphthyridin-3-yl)amino)pyrimidin-2-yl)piperidin-4-ol or (3S,4R)-3-fluoro-1-(4-((5-(2-fluoropyridin-3-yl)-8-((S)-2-methylazetidin-1-yl)-2,7-naphthyridin-3-yl)amino)pyrimidin-2-yl)piperidin-4-ol]	< 15 nM	30 to 50 nM	–
CC(C)c1cnc(N2CC3(CN(C)C(=O)O3)C2)c2cnc(Nc3ccnc(N4CC[C@@H](O)[C@@](C)(F)C4)n3)cc12 [Example 71, 2-(6-((2-((3S,4R)-3-fluoro-4-hydroxy-3-methylpiperidin-1-yl)pyrimidin-4-yl)amino)-4-isopropyl-2,7-naphthyridin-1-yl)-7-methyl-5-oxa-2,7-diazaspiro[3.4]octan-6-one]	20 to 30 nM	–	30 to 50 nM
CC(C)c1cnc(N2CC[C@@H]2C)c2cnc(Nc3ccnc(N4CC[C@H](O)[C@H](F)C4)n3)cc12 (single isomer, unassigned) [Example 160, (3R,4S)-3-fluoro-1-(4-((5-isopropyl-8-((S)-2-methylazetidin-1-yl)-2,7-naphthyridin-3-yl)amino)pyrimidin-2-yl)piperidin-4-ol or (3R,4S)-3-fluoro-1-(4-((5-isopropyl-8-((R)-2-methylazetidin-1-yl)-2,7-naphthyridin-3-yl)amino)pyrimidin-2-yl)piperidin-4-ol]	< 15 nM	–	10 to 20 nM
C[C@@H]1CCN1c1ncc([C@@H](C)C(=O)N(C)C)c2cc(Nc3ccnc(N4CC[C@@H](O)[C@@](C)(F)C4)n3)ncc12 (single isomer, unassigned) [Example 185, (R)-2-(6-((2-((3S,4R)-3-fluoro-4-hydroxy-3-methylpiperidin-1-yl)pyrimidin-4-yl)amino)-1-((R)-2-methylazetidin-1-yl)-2,7-naphthyridin-4-yl)-N,N-dimethylpropanamide or (S)-2-(6-((2-((3S,4R)-3-fluoro-4-hydroxy-3-methylpiperidin-1-yl)pyrimidin-4-yl)amino)-1-((R)-2-methylazetidin-1-yl)-2,7-naphthyridin-4-yl)-N,N-dimethylpropanamide]	20 to 30 nM	–	> 50 nM
CO[C@@H]1CCN(c2nccc(Nc3cc4c(C(C)C)ccc(N5C[C@H](O)[C@H]5C)c4cn3)n2)C[C@@H]1O (single isomer, unassigned) [Example 123, (3S,4R)-1-(4-((8-((2R,3S)-3-hydroxy-2-methylazetidin-1-yl)-5-isopropylisoquinolin-3-yl)amino)pyrimidin-2-yl)-4-methoxypiperidin-3-ol-ol or (3R,4S)-1-(4-((8-((2R,3S)-3-hydroxy-2-methylazetidin-1-yl)-5-isopropylisoquinolin-3-yl)amino)pyrimidin-2-yl)-4-methoxypiperidin-3-ol]	15 to 20 nM	–	> 50 nM
CO[C@H]1CN(c2ncc([C@@H](C)CO)c3cc(Nc4ccnc(N5CC[C@@H](O)[C@@](C)(F)C5)n4)ncc23)[C@@H]1C (single isomer, unassigned) [Example 211, (3S,4R)-3-fluoro-1-(4-((5-((R)-1-hydroxypropan-2-yl)-8-((2R,3S)-3-methoxy-2-methylazetidin-1-yl)-2,7-naphthyridin-3-yl)amino)pyrimidin-2-yl)-3-methylpiperidin-4-ol or (3S,4R)-3-fluoro-1-(4-((5-((S)-1-hydroxypropan-2-yl)-8-((2R,3S)-3-methoxy-2-methylazetidin-1-yl)-2,7-naphthyridin-3-yl)amino)pyrimidin-2-yl)-3-methylpiperidin-4-ol]	30 to 100 nM	–	> 50 nM

The remaining lines, values ahead:

IC50 [1]	IC50 ([2]; Ext pEGFR H1975 GMean IC50 (nM) Protocol: @Pharmaron AlphaLISA (Num))	IC50 [2, 3]	SMILES
< 15 nM	–	> 50 nM	CC(C)c1ncc(-c2ncn(C)n2)c2cnc(Nc3ccnc(N4CC[C@@H](O)[C@@](C)(F)C4)n3)cc12 [Example 6, (3S,4R)-3-fluoro-1-(4-((5-isopropyl-8-(1-methyl-1H-1,2,4-triazol-3-yl)-2,6-naphthyridin-3-yl)amino)pyrimidin-2-yl)-3-methylpiperidin-4-ol]
< 15 nM	–	> 50 nM	CC(C)c1cnc(-c2ccn(C3COC3)n2)c2cnc(Nc3ccnc(N4CC[C@@H](O)[C@@](C)(F)C4)n3)cc12 [Example 21, (3S,4R)-3-fluoro-1-(4-((5-isopropyl-8-(1-(oxetan-3-yl)-1H-pyrazol-3-yl)-2,7-naphthyridin-3-yl)amino)pyrimidin-2-yl)-3-methylpiperidin-4-ol]
< 15 nM	–	20 to 30 nM	CC(C)c1nnc(N2CC[C@@H]2C)c2cnc(Nc3ccnc(N4CC[C@@H](O)[C@@](C)(F)C4)n3)cc12 (single isomer, unassigned) [Example 206, (3S,4R)-3-fluoro-1-(4-((1-isopropyl-4-((S)-2-methylazetidin-1-yl)pyrido[3,4-d]pyridazin-7-yl)amino)pyrimidin-2-yl)-3-methylpiperidin-4-ol or (3S,4R)-3-fluoro-1-(4-((1-isopropyl-4-((S)-2-methylazetidin-1-yl)pyrido[3,4-d]pyridazin-7-yl)amino)pyrimidin-2-yl)-3-methylpiperidin-4-ol]
< 15 nM	–	> 50 nM	CC(C)c1cnc(N2C[C@@H](F)[C@@H](F)C2)c2cnc(Nc3ccnc(N4CC[C@@H](O)[C@@](C)(F)C4)n3)cc12 [Example 56, (3S,4R)-1-(4-((8-(cis-3,4-difluoropyrrolidin-1-yl)-5-isopropyl-2,7-naphthyridin-3-yl)amino)pyrimidin-2-yl)-3-fluoro-3-methylpiperidin-4-ol]
< 15 nM	–	< 10 nM	CC(C)c1cnc(N2C[C@@H](F)[C@H]2C)c2cnc(Nc3ccnc(N4CC[C@@H](O)[C@@](C)(F)C4)n3)cc12 (single isomer, unassigned) [Example 33, (3S,4R)-3-fluoro-1-(4-((8-((2R,3R)-3-fluoro-2-methylazetidin-1-yl)-5-isopropyl-2,7-naphthyridin-3-yl)amino)pyrimidin-2-yl)-3-methylpiperidin-4-ol or (3S,4R)-3-fluoro-1-(4-((8-((2S,3S)-3-fluoro-2-methylazetidin-1-yl)-5-isopropyl-2,7-naphthyridin-3-yl)amino)pyrimidin-2-yl)-3-methylpiperidin-4-ol]
< 15 nM	–	> 50 nM	CC(C)c1cnc(N2CCC23CNC3)c2cnc(Nc3ccnc(N4CC[C@@H](O)[C@@](C)(F)C4)n3)cc12 [Example 190, (3S,4R)-3-fluoro-1-(4-((5-isopropyl-8-(1,6-diazaspiro[3.3]heptan-1-yl)-2,7-naphthyridin-3-yl)amino)pyrimidin-2-yl)-3-methylpiperidin-4-ol]
30 to 100 nM	–	> 50 nM	CC(C)c1nnc(N2CC[C@H]2C(F)F)c2cnc(Nc3ccnc(N4CC[C@@H](O)[C@@](C)(F)C4)n3)cc12 (single isomer, unassigned) [Example 205, (3S,4R)-1-(4-((4-((S)-2-(difluoromethyl)azetidin-1-yl)-1-isopropylpyrido[3,4-d]pyridazin-7-yl)amino)pyrimidin-2-yl)-3-fluoro-3-methylpiperidin-4-ol or (3S,4R)-1-(4-((4-((R)-2-(difluoromethyl)azetidin-1-yl)-1-isopropylpyrido[3,4-d]pyridazin-7-yl)amino)pyrimidin-2-yl)-3-fluoro-3-methylpiperidin-4-ol]
